What all share (assay type): cell-based, human
In assay [1] the test system is peritoneal macrophages. Nature of the assay: stability of membrane-bound thiol restitution in peritoneal macrophages in the dialysis model. Conditions: dialysis model over 14 days; FIG. 7. Here is the method: (§1) The peritoneal macrophages described under example 3, which were thiol-restituted by means of the combinations used according to the invention, were removed from this test system after 6 days and cultured in a dialysis model over a period of 14 days. For this, the peritoneal macrophages were adapted to mobile collagen IV-coated matrices and brought into contact with conventional dialysis solution 3 times daily for 60 minutes each. This model served here for the induction of a combined […]/osmotic stress. In FIG. 6, the action of the combination of α-lipoic acid and ambroxole (FIG. 6a), and α-lipoic acid and enalapril (FIG. 6b) on the intracellular thiol expression of the peritoneal macrophages in the time kinetics is presented. The membrane expression of thiols was determined by means of the mean fluorescence intensity (mfi) of the sample (3000 cells/measurement) after coupling to a chloro-methylfluorochrome derivative.

The next assay concerns T lymphocytes. Nature of the assay: activation markers CD69, CD25, CD71 of phytohemagglutinin-stimulated T lymphocytes. Conditions: thiol-deficient cells, culture period of 72 hours, FIG. 3. The method, then:
In the culture batch described under example 1, human T lymphocytes were stimulated with […] of phyto-hemagglutinin. […] The influence of the combinations used according to the invention on the activation markers CD69 (early activation antigen), CD25 (intermediate activation antigen) and CD71 (late activation antigen) of T lymphocytes was investigated. In FIG. 3, the action of the combination of α-lipoic acid and ambroxole (FIG. 3a), and α-lipoic acid and enalapril (FIG. 3b) on the activation index of T lymphocytes is shown. Compared with normal T lymphocytes (activation index=1.0), in thiol-deficient cells a clear lowering of the activatability, confirming the cellular functional disorder, is to be noted. […] It can thus be concluded that the normalization of the cellular thiol status mediated by the combined use of α-lipoic acid and the respective effectors of the glutathione metabolism is accompanied by a restitution of the cellular functionality.

The test system of assay [2] is peritoneal macrophages. Briefly: stability of intracellular thiol restitution in peritoneal macrophages in the dialysis model. Here is the method: as §1
The subject of assay [3] is peritoneal macrophages. Briefly: cellular thiol expression of peritoneal macrophages in kidney replacement therapy. Particulars: time kinetics over 14 days (n=12); FIG. 4. Here is the method: Peritoneal macrophages were isolated from the effluate of the peritoneal dialysis of high-grade renally insufficient patients, taken up in cell culture medium and incubated in a gas incubator at 37° C., a relative humidity of 98% and 7.5% relative air-CO2 content. In order to test the influence of the combinations used according to the invention on the thiol status of the peritoneal macrophages, in each case a fraction was treated with α-lipoic acid, the effector of the glutathione metabolism ambroxole or the ACE inhibitor enalapril or with the combination of α-lipoic acid/ambroxole or α-lipoic acid/enalapril, while in each case a further fraction was used as an untreated control. The determination of the cellular thiol status was carried out by means of the measuring method described under 1. The membrane expression of thiols was determined by means of the mean fluorescence intensity (mfi) of the sample (3000 cells/measurement) after coupling to a chloromethylfluorochrome derivative. In FIG. 4, the effect of the combination of α-lipoic acid and ambroxole (FIG. 4a), and α-lipoic acid and enalapril (FIG. 4b) in the time kinetics over 14 days is shown (n=12).

Assay [4] relates to lymphocytes (peripheral immune cells). Briefly: intracellular thiol expression of peripheral immune cells (CMFDA flow cytofluorimetry). Conditions: for intracellular thiol expression: α-lipoic acid 50 μM, captopril 10 μM, combination at the same concentrations. The method, then:
Peripheral immune cells of healthy donors (n=9) were isolated from the peripheral blood by means of density gradient centrifugation. Lymphocytes having a donor-dependent relative proportion of about 90% in this case normally represent the main fraction of the resulting total population of mononuclear cells. 10% of the mononuclear cells are represented by monocytes. The mononuclear cells obtained were taken up in special cell culture media and incubated in a gas incubator at 37° C., a relative humidity of 98% and 5% relative air-CO2 content. The metabolism of the primarily resting immune cells was activated by means of mitogenic stimulation (0.5 μg/ml of phytohemagglutinin). In order to test the influence of the combinations used according to the invention on the thiol status of thiol-deficient immune cells, these were artificially thiol-depleted. This was carried out by culturing in thiol-deficient media (RPMI 1603) according to tested procedures. Comparison cultures using whole media (RPMI 1640) served for the definition of the best possible normal value under culture conditions. […] Primarily nonfluorogenic CMFDA is in this case passively taken up by the cell. Binding to cytoplasmic thiol groups takes place via the chloromethyl radical. After removal of the acetate radicals by nonspecific cellular esterases, this, now cell membrane-impermeable complex becomes fluorogenic at an excitation wavelength λex=490 nm with an emission wavelength λem=520 nm. The mean fluorescence intensity of the sample (10,000 cells) is directly proportional to the concentration of the intracellular thiol groups. In FIG. 1, the action of the combination of α-lipoic acid and ambroxole (FIG. 1a) and α-lipoic acid and enalapril (FIG. 1b) on the intracellular thiol expression of lymphocytes is shown. […] The data are shown as the ratio of the cellular fluorescence intensity for calibration particles (beads) in each case analyzed in parallel. The active compound concentration of the respective combination is identical to the concentrations of the individual components.

Assay [5] deals with peritoneal macrophages. Nature of the assay: membrane-bound thiol expression of peritoneal macrophages. Conditions: FIG. 5. The method, then:
Peritoneal macrophages were isolated from the effluate of the peritoneal dialysis of high-grade renally insufficient patients, taken up in cell culture medium and incubated in a gas incubator at 37° C., a relative humidity of 98% and 7.5% relative air-CO2 content. In order to test the influence of the combinations used according to the invention on the thiol status of the peritoneal macrophages, in each case a fraction was treated with α-lipoic acid, the effector of the glutathione metabolism ambroxole or the ACE inhibitor enalapril or with the combination of α-lipoic acid/ambroxole or α-lipoic acid/enalapril, while in each case a further fraction was used as an untreated control. The determination of the cellular thiol status was carried out by means of the measuring method described under 1. The membrane expression of thiols was determined by means of the mean fluorescence intensity (mfi) of the sample (3000 cells/measurement) after coupling to a chloromethylfluorochrome derivative. In FIG. 5, the action of the combination of α-lipoic acid and enalapril (FIG. 5b) on the membrane-bound thiol expression of peritoneal macrophages in the experimental setup described above is presented. The membrane expression of thiols was determined by means of the mean fluorescence intensity (mfi) of the sample (3000 cells/measurement) after coupling to a chloro-methylfluorochrome derivative.

The values below come from patent US7531567B2, “Use of a medicament containing an effector of the glutathione metabolism together with α-lipoic acid in kidney replacement therapy” (Serumwerk Bernburg AG, priority 2001, dated 2009).

For the compound `O=C(O)CCCCC1CCSS1` (stereo not drawn) [α-lipoic acid], the “membrane-bound thiol expression in the dialysis model (in words)” value in the assay with peritoneal macrophages [1] was “intermediate”. The “effect on the activation index of T lymphocytes (in words)” value with T lymphocytes was “slight improvement in the cellular activatability”. Also, the “action relative to the action of the combinations” value in the assay on peritoneal macrophages [2] (after about 4 days in the dialysis model) is on record as “approximately 50%”. The “intracellular thiol status in the dialysis model (in words)” value with peritoneal macrophages [2] (dialysis model over 14 days, FIG. 6) is given as “only short-lasting”. Besides, the “effect on the cellular thiol expression of peritoneal macrophages (in words)” value in the assay on peritoneal macrophages [3] was “increase in the cellular thiol expression”. Besides, the intracellular thiol expression was found to be 2.88 ± 0.20 mfiBeads/Ratio in assay [4] (culture period 0 d); 2.81 ± 0.23 mfiBeads/Ratio in assay [4] (culture period 1 d); 2.76 ± 0.50 mfiBeads/Ratio in assay [4] (culture period 2 d); 2.63 ± 0.60 mfiBeads/Ratio in assay [4] (culture period 3 d); 2.41 ± 0.40 mfiBeads/Ratio in assay [4] (culture period 4 d); 2.23 ± 0.50 mfiBeads/Ratio in assay [4] (culture period 6 d). Moreover, the intracellular thiol expression turned out to be 2.02 ± 0.30 mfiBeads/Ratio in assay [4] (culture period 8 d), 1.89 ± 0.30 mfiBeads/Ratio in assay [4] (culture period 10 d), 1.86 ± 0.68 mfiBeads/Ratio in assay [4] (culture period 12 d) and 1.83 ± 0.60 mfiBeads/Ratio in assay [4] (culture period 14 d). Besides, in assay [4] (thiol-deficient conditions (1603), FIG. 1), the “effect on the intracellular thiol deficit (in words)” value is given as “Neither by α-lipoic acid alone nor by the individual application of the effectors was a complete equalization of the thiol deficit possible”. In addition, the “effect on the membrane-bound thiol expression of peritoneal macrophages (in words)” value with peritoneal macrophages [5] was “very marked effect of the sole administration of α-lipoic acid is to be noted here, which, however, is cancelled out again after 4 days of treatment”.
